Drawing on US7414066B2, “Amide compounds and medications containing the same technical field” (Kowa Company Ltd., priority 1999, dated 2008), this text covers melting point for 25 molecules.

The structures appear in SMILES notation.

In general, melting point refers to the temperature, or range, at which the solid turns liquid.

`CCSc1cc(C)nc(SCC)c1NC(=O)CCCCCCSc1nc2ccccc2o1` [Compound No. 816, 7-(benzoxazol-2-ylthio)-N-[2,4-bis(ethylthio)-6-methyl-3-pyridyl]heptanamide] yielded a melting point of 103 to 105 °C.

In turn, `Cc1cc(SC(C)C)c(NC(=O)CCCCCCSc2nc3c(C)c(Cl)cc(C(C)C)c3o2)c(SC(C)C)n1` [Compound No. 1302, 7-(5-chloro-7-isopropyl-4-methylbenzoxazol-2-ylthio)-N-[2,4-bis(isopropylthio)-6-methyl-3-pyridyl]heptanamide] yielded a melting point of 91 to 93 °C.

As to `CSc1cc(C)nc(SC)c1NC(=O)CCCCCCSc1nc2cccc(C(F)(F)F)c2o1` [Compound No. 1252, 7-(7-trifluoromethylbenzoxazol-2-ylthio)-N-[2,4-bis(methylthio)-6-methyl-3-pyridyl]heptanamide], the melting point was in the range of 129 to 131 °C.

Regarding `CCSc1cc(C)nc(SCC)c1NC(=O)CCCCSc1nc2ccccc2o1` [Compound No. 814, 5-(benzoxazol-2-ylthio)-N-[2,4-bis(ethylthio)-6-methyl-3-pyridyl]pentanamide], the melting point was in the range of 122 to 123 °C.

`CCSc1cc(C)nc(SCC)c1NC(=O)CCCSc1nc2cccc(C(F)(F)F)c2o1` [Compound No. 1269, 4-(7-trifluoromethylbenzoxazol-2-ylthio)-N-[2,4-bis(ethylthio)-6-methyl-3-pyridyl]butanamide] displayed a melting point of 148 to 150 °C.

In turn, `Cc1cc(SC(C)C)c(NC(=O)CCCSc2nc3ccccc3s2)c(SC(C)C)n1` [Compound No. 853, 4-(benzothiazol-2-ylthio)-N-[2,4-bis(isopropylthio)-6-methyl-3-pyridyl]butanamide] registered a melting point of 116 to 117 °C.

Consider `Cc1cc(SC(C)C)c(NC(=O)CCCCCCCSc2nc3ccccc3s2)c(SC(C)C)n1` [Compound No. 857, 8-(benzothiazol-2-ylthio)-N-[2,4-bis(isopropylthio)-6-methyl-3-pyridyl]octanamide], for which the melting point fell in the range of 107 to 108 °C.

Molecule `CCSc1cc(C)nc(SCC)c1NC(=O)CCCCCCCSc1nc2c(C)c(Cl)cc(C(C)C)c2o1` [Compound No. 1283, 8-(5-chloro-7-isopropyl-4-methylbenzoxazol-2-ylthio)-N-[2,4-bis(ethylthio)-6-methyl-3-pyridyl]octanamide] showed a melting point of 82 to 84 °C.

The molecule `Cc1cc(SC(C)C)c(NC(=O)CCCCSc2nc3ccccc3s2)c(SC(C)C)n1` [Compound No. 854, 5-(benzothiazol-2-ylthio)-N-[2,4-bis(isopropylthio)-6-methyl-3-pyridyl]pentanamide] registered a melting point of 107 to 109 °C.

Consider `CSc1cc(C)nc(SC)c1NC(=O)CSc1nc2ccccc2o1` [compound 781, 2-(benzoxazol-2-ylthio)-N-[2,4-bis(methylthio)-6-methyl-3-pyridyl]acetamide], for which the melting point was in the range of 203 to 205 °C.

`CCSc1cc(C)nc(SCC)c1NC(=O)CCCCSc1nc2c(C)c(Cl)cc(C(C)C)c2o1` [Compound No. 1280, 5-(5-chloro-7-isopropyl-4-methylbenzoxazol-2-ylthio)-N-[2,4-bis(ethylthio)-6-methyl-3-pyridyl]pentanamide] showed a melting point of 141 to 142 °C.

For `CCSc1cc(C)nc(SCC)c1NC(=O)CCCCCSc1nc2ccccc2o1` [compound 815, 6-(benzoxazol-2-ylthio)-N-[2,4-bis(ethylthio)-6-methyl-3-pyridyl]hexanamide], the melting point was 100 to 103 °C.

For `Cc1cc(SC(C)C)c(NC(=O)CCCCCSc2nc3c(C)c(Cl)cc(C(C)C)c3o2)c(SC(C)C)n1` [Compound No. 1301, 6-(5-chloro-7-isopropyl-4-methylbenzoxazol-2-ylthio)-N-[2,4-bis(isopropylthio)-6-methyl-3-pyridyl]hexanamide], the melting point lay within 99 to 101 °C.

`CSc1cc(C)nc(SC)c1NC(=O)CCCSc1nc2ccccc2o1` [compound 783, 4-(benzoxazol-2-ylthio)-N-[2,4-bis(methylthio)-6-methyl-3-pyridyl]butanamide]: the melting point is 149 to 150 °C.

`CCSc1cc(C)nc(SCC)c1NC(=O)CSc1nc2cccc(C(F)(F)F)c2o1` [Compound No. 1267, 2-(7-trifluoromethylbenzoxazol-2-ylthio)-N-[2,4-bis(ethylthio)-6-methyl-3-pyridyl]acetamide] registered a melting point of 182 to 183 °C.

`Cc1cc(SC(C)C)c(NC(=O)CCCCCSc2nc3ccccc3[nH]2)c(SC(C)C)n1` [Compound No. 865, 6-(benzimidazol-2-ylthio)-N-[2,4-bis(isopropylthio)-6-methyl-3-pyridyl]hexanamide] gave a melting point of 175 to 176 °C.

For `CSc1cc(C)nc(SC)c1NC(=O)CCCCSc1nc2ccccc2[nH]1` [Compound No. 804, 5-(benzimidazol-2-ylthio)-N-[2,4-bis(methylthio)-6-methyl-3-pyridyl]pentanamide], the melting point lay within 176 to 177 °C.

`COC(=O)c1cccc2nc(SCCCCCCCCC(=O)Nc3c(SC)cc(C)nc3SC)oc12` [Compound No. 1240, 9-(7-methoxycarbonylbenzoxazol-2-ylthio)-N-[2,4-bis(methylthio)-6-methyl-3-pyridyl]nonanamide] showed a melting point of 126 to 128 °C.

Molecule `CSc1cc(C)nc(SC)c1NC(=O)CCCCCCCSc1nc2ccccc2s1` [Compound No. 797, 8-(benzthiazol-2-ylthio)-N-[2,4-bis(methylthio)-6-methyl-3-pyridyl)octanamide] gave a melting point of 104 to 108 °C.

As for `CSc1cc(C)nc(SC)c1NC(=O)CCCCSc1nc2cccc(C(F)(F)F)c2o1` [Compound No. 1250, 5-(7-trifluoromethylbenzoxazol-2-ylthio)-N-[2,4-bis(methylthio)-6-methyl-3-pyridyl]pentanamide], the melting point lay within 179 to 180 °C.

For `CCSc1cc(C)nc(SCC)c1NC(=O)CCCCCCSc1nc2ccccc2s1` [Compound No. 826, 7-(benzothiazol-2-ylthio)-N-[2,4-bis(ethylthio)-6-methyl-3-pyridyl]heptanamide], the melting point lay within 114 to 116 °C.

Take `CSc1cc(C)nc(SC)c1NC(=O)CCCSc1nc2ccccc2[nH]1` [compound 803, 4-(benzimidazol-2-ylthio)-N-[2,4-bis(methylthio)-6-methyl-3-pyridyl]butanamide]: the melting point was 177 to 179 °C.

For `Cc1cc(SC(C)C)c(NC(=O)CCCCCSc2nc3ccccc3s2)c(SC(C)C)n1` [Compound No. 855, 6-(benzothiazol-2-ylthio)-N-[2,4-bis(isopropylthio)-6-methyl-3-pyridyl]hexanamide], the melting point is 84 to 86 °C.

Take `CCSc1cc(C)nc(SCC)c1NC(=O)CCCCCCCSc1nc2ccccc2[nH]1` [Compound No. 837, 8-(benzoimidazol-2-ylthio)-N-[2,4-bis(ethylthio)-6-methyl-3-pyridyl]octanamide]: the melting point was in the range of 166 to 168 °C.

`CSc1cc(C)nc(SC)c1NC(=O)CCCCCSc1nc2ncccc2o1` [Compound No. 1237, 6-(oxazolo[4,5-b]pyridin-2-ylthio)-N-[2,4-bis(methylthio)-6-methyl-3-pyridyl]hexanamide]: the melting point was in the range of 132 to 133 °C.
